These results are taken from US20260184708A1, “PYRIDAZINONES AND METHODS OF USE THEREOF” (GFB (ABC), LLC, priority 2017, published 2026).

The first assay has as its target T1, TRPC5 (Homo sapiens, UniProt Q9UL62).
T1 construct: expressed in transfected cells; host or cells: HEK 293
T1 sequence (Q9UL62 1-973): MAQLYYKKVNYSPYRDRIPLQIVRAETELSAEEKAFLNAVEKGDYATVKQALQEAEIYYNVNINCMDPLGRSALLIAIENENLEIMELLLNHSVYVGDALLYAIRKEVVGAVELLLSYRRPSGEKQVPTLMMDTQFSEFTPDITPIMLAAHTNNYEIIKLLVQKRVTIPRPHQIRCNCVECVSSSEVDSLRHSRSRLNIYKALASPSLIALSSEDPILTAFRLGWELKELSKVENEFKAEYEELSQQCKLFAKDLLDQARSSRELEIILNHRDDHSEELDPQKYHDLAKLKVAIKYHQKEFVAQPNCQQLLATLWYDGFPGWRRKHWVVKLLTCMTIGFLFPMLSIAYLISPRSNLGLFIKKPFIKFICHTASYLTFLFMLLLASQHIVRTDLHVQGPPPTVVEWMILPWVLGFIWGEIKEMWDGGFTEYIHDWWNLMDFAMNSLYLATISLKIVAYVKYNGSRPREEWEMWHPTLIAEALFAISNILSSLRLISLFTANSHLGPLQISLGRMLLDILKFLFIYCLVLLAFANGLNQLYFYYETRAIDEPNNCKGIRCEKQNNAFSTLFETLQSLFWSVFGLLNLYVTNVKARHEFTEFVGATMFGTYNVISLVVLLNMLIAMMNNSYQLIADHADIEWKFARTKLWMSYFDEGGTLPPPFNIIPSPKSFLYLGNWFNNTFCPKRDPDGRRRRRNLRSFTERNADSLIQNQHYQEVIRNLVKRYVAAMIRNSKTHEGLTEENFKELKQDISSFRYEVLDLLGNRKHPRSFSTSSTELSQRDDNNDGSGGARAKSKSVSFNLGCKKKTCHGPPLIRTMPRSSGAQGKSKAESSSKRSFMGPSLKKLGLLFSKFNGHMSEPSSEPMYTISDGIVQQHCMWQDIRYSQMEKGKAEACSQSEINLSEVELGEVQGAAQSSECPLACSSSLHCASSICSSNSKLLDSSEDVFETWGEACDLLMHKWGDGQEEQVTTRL
Nature of the assay: TRPC5 automated patch clamp assay (Qpatch), current block after rosiglitazone stimulation. In kind it is cell-based. The conditions noted are these: Table 4; HEK293 cells overexpressing TRPC5; rosiglitazone stimulation; 80 mV; read-out: TRPC5_QP_ XC50_80. As for the experimental part:
HEK 293 cells expressing human TRPC5 were harvested, re-suspended in serum free medium, and added to the automated platform and used within 2-3 hours. Internal and external physiological solutions were freshly prepared prior to the assay. The external solution contained: 145 mM NaCl, 4 mM KCl, 2 mM CaCl2), 1 mM MgCl2, 10 mM HEPES, 10 mM glucose, pH 7.4 with NaOH and 300 mOsm/L. The internal solution contained 120 mM L-aspartic acid, 120 mM CsOH·H2O, 20 mM CsCl, 2 mM MgCl2, 8.8 mM CaCl2), 10 mM EGTA, 10 mM HEPES, 10 mM Glucose, 0.1 mM GTP and 2 mM Na2ATP; pH 7.2 with CsOH and 290 mOsm/L. The free internal Ca2+ concentration was buffered to 1 μM.
The automated electrophysiological platform QPatch 16 from Sophion (Denmark) was used to carry out the compounds profiling. The series resistance and quality of seals were continuously monitored during the experiments. Data was analyzed using Sophion QPatch assay software 5.6 (Odense). IC50 values were calculated using a least squares regression algorithm (Hill equation).
To monitor the ion currents, a voltage ramp from −100 mV to +100 mV, over 300 ms, was applied every 10 seconds, from a holding potential of −60 mV.
After recording for a minimum of 60 seconds control period, Rosiglitazone (30 uM), was applied to activate the channel.
With `Cc1ccccc1CN1CCN(c2cn[nH]c(=O)c2C2CC2)CC1=O`, the IC50 lay in the range of 1 to 5 µM.

Turning to `O=C1CN(c2c(Cl)c(Br)n[nH]c2=O)CCN1Cc1ccccc1C(F)(F)F`, the IC50 lay in the range of 1 to 5 µM.

As to `O=c1[nH]ncc(N2CCOC(Cc3ccccc3)C2)c1Cl` (stereo not shown), the IC50 lay in the range of 10 to 500 µM.

For `O=C1CN(c2cnnc(Br)c2Cl)CCN1Cc1ccc(F)cc1C(F)(F)F`, the IC50 lay in the range of 10 to 500 µM.

On to `C=C(C)c1c(N2CCN(Cc3ccccc3C)C(=O)C2)cn[nH]c1=O`, for which the IC50 fell in the range of 10 to 500 µM.

Turning to `Cc1cc(F)ccc1CN1CCN(c2cc(C)c(=O)[nH]n2)CC1`, the IC50 lay in the range of 5 to 10 µM.

Regarding `Cc1cc(F)ccc1CN1CCN(c2cn[nH]c(=O)c2Cl)CC1=O`, the IC50 lay within 1 to 5 µM.

As for `O=C1CN(c2cn[nH]c(=O)c2Cl)CCN1Cc1cccc(Oc2ccccc2)c1`, the IC50 fell in the range of 1 to 5 µM.

For `Cc1ccccc1[C@@H](C)N1CCN(c2cn[nH]c(=O)c2Cl)CC1`, the IC50 fell in the range of 1 to 5 µM.

Still in this assay, the particulars now being: Table 4; HEK293 cells overexpressing TRPC5; rosiglitazone stimulation; 100 mV; read-out: TRPC5_QP_ XC50_100.
As to `Cc1ccccc1CN1CCN(c2cn[nH]c(=O)c2C2CC2)CC1=O`, the IC50 is 1 to 5 µM.

As for `O=C1CN(c2c(Cl)c(Br)n[nH]c2=O)CCN1Cc1ccccc1C(F)(F)F`, the IC50 was in the range of 5 to 10 µM.

For the molecule `O=c1[nH]ncc(N2CCOC(Cc3ccccc3)C2)c1Cl` (stereo not shown), the IC50 lay in the range of 10 to 500 µM.

On to `O=C1CN(c2cnnc(Br)c2Cl)CCN1Cc1ccc(F)cc1C(F)(F)F`, for which the IC50 was in the range of 10 to 500 µM.

Regarding `C=C(C)c1c(N2CCN(Cc3ccccc3C)C(=O)C2)cn[nH]c1=O`, the IC50 fell in the range of 10 to 500 µM.

In the case of `Cc1cc(F)ccc1CN1CCN(c2cc(C)c(=O)[nH]n2)CC1`, the IC50 was in the range of 5 to 10 µM.

Regarding `Cc1cc(F)ccc1CN1CCN(c2cn[nH]c(=O)c2Cl)CC1=O`, the IC50 was in the range of 1 to 5 µM.

In the case of `O=C1CN(c2cn[nH]c(=O)c2Cl)CCN1Cc1cccc(Oc2ccccc2)c1`, the IC50 was 1 to 5 µM.

In the case of `Cc1ccccc1[C@@H](C)N1CCN(c2cn[nH]c(=O)c2Cl)CC1`, the IC50 is 1 to 5 µM.

The assay is the same for the next values; noted with them: Table 5; HEK293 cells overexpressing TRPC5; rosiglitazone stimulation; 80 mV; read-out: TRPC5_QP_ XC50_80.
Turning to `Cc1ccccc1CN1CC2(CCN(c3cn[nH]c(=O)c3Cl)CC2)C1`, the IC50 lay within 1 to 5 µM.

With `COc1ccc(CN2CCN(c3cn[nH]c(=O)c3Cl)CC2=O)cc1`, the IC50 lay within 5 to 10 µM.

Regarding `Cc1cc(F)ccc1CN1CCN(c2cn[nH]c(=O)c2C(F)(F)F)CC1=O`, the IC50 lay in the range of 5 to 10 µM.

For the molecule `Cc1cc(F)ccc1CN1CCN(c2ccn[nH]c2=O)CC1`, the IC50 was 10 to 500 µM.

As to `O=C1N(Cc2ccccc2C(F)(F)F)CCC12CCN(c1cn[nH]c(=O)c1Cl)CC2`, the IC50 was 10 to 500 µM.

Turning to `Cc1n[nH]c(=O)c(N2CCN(Cc3ccccc3OC(F)(F)F)C(=O)C2)c1Cl`, the IC50 fell in the range of 5 to 10 µM.

On to `O=c1[nH]ncc(N2CCN(Cc3cccnc3Oc3ccccc3)CC2)c1Cl`, for which the IC50 lay in the range of 5 to 10 µM.

As to `O=C1CN(c2c(Cl)cn[nH]c2=O)CCN1Cc1ccc(OC(F)(F)F)cc1`, the IC50 is 10 to 500 µM.

`Cc1n[nH]c(=O)c(Cl)c1N1CCN(Cc2ccc(F)cc2C(F)(F)F)C(=O)C1`: the IC50 lay within 5 to 10 µM.

For `O=C1CN(c2cn[nH]c(=O)c2Cl)CCN1CC1CCC(F)(F)CC1`, the IC50 is 5 to 10 µM.

On to `Cc1cc(F)ccc1CN1CCN(c2c(Br)n[nH]c(=O)c2Cl)CC1`, for which the IC50 lay in the range of 10 to 500 µM.

In the case of `O=C1CN(c2cn[nH]c(=O)c2Cl)CCN1Cc1ccc(Cl)cc1`, the IC50 fell in the range of 1 to 5 µM.

`COc1cc(F)ccc1CN1CCN(c2cn[nH]c(=O)c2Cl)CC1=O` [drawing 772]: the IC50 lay in the range of 1 to 5 µM.

As for `Cc1ccccc1Cn1cnc2c1CCN(c1cn[nH]c(=O)c1Cl)C2` [drawing 830], the IC50 fell in the range of 1e-05 to 1 µM.

Take `CC[C@H](c1ccccc1)N1CCN(c2cn[nH]c(=O)c2Cl)CC1`: the IC50 fell in the range of 1 to 5 µM.

The assay is the same for the next values; noted with them: Table 5; HEK293 cells overexpressing TRPC5; rosiglitazone stimulation; 100 mV; read-out: TRPC5_QP_ XC50_100.
Turning to `Cc1ccccc1CN1CC2(CCN(c3cn[nH]c(=O)c3Cl)CC2)C1`, the IC50 is 1 to 5 µM.

`COc1ccc(CN2CCN(c3cn[nH]c(=O)c3Cl)CC2=O)cc1`: the IC50 was 5 to 10 µM.

With `Cc1cc(F)ccc1CN1CCN(c2cn[nH]c(=O)c2C(F)(F)F)CC1=O`, the IC50 is 5 to 10 µM.

Take `Cc1cc(F)ccc1CN1CCN(c2ccn[nH]c2=O)CC1`: the IC50 is 10 to 500 µM.

In the case of `O=C1N(Cc2ccccc2C(F)(F)F)CCC12CCN(c1cn[nH]c(=O)c1Cl)CC2`, the IC50 fell in the range of 10 to 500 µM.

As to `Cc1n[nH]c(=O)c(N2CCN(Cc3ccccc3OC(F)(F)F)C(=O)C2)c1Cl`, the IC50 is 5 to 10 µM.

Turning to `O=c1[nH]ncc(N2CCN(Cc3cccnc3Oc3ccccc3)CC2)c1Cl`, the IC50 was 5 to 10 µM.

Regarding `O=C1CN(c2c(Cl)cn[nH]c2=O)CCN1Cc1ccc(OC(F)(F)F)cc1`, the IC50 was 10 to 500 µM.

Regarding `Cc1n[nH]c(=O)c(Cl)c1N1CCN(Cc2ccc(F)cc2C(F)(F)F)C(=O)C1`, the IC50 was 5 to 10 µM.

Take `O=C1CN(c2cn[nH]c(=O)c2Cl)CCN1CC1CCC(F)(F)CC1`: the IC50 was 5 to 10 µM.

Regarding `Cc1cc(F)ccc1CN1CCN(c2c(Br)n[nH]c(=O)c2Cl)CC1`, the IC50 fell in the range of 10 to 500 µM.

Consider `O=C1CN(c2cn[nH]c(=O)c2Cl)CCN1Cc1ccc(Cl)cc1`, for which the IC50 is 5 to 10 µM.

Turning to `COc1cc(F)ccc1CN1CCN(c2cn[nH]c(=O)c2Cl)CC1=O` [drawing 772], the IC50 fell in the range of 1 to 5 µM.

Regarding `Cc1ccccc1Cn1cnc2c1CCN(c1cn[nH]c(=O)c1Cl)C2` [drawing 830], the IC50 was 1e-05 to 1 µM.

Consider `CC[C@H](c1ccccc1)N1CCN(c2cn[nH]c(=O)c2Cl)CC1`, for which the IC50 fell in the range of 1 to 5 µM.

The same assay, now with this note: Table 6; HEK293 cells overexpressing TRPC5; read-out: TRPC5-QPatch IC50.
Take `O=c1[nH]ncc(N2CCc3c(ncn3Cc3ccccc3C(F)F)C2)c1Cl` [drawing 839]: the IC50 is 5 to 10 µM.
